In US5545638A, “Method of treating gastrointestinal motility disorders” (Novo Nordisk A/S, priority 1995, dated 1996) one finds IC50 data, which are given here for one compound.

The target in the assay is muscarinic receptors. Description: Inhibition of ^3 H-oxotremorine-M binding to muscarinic receptors. Details: species or system rat (male Sprague-Dawley, cerebral cortex). The conditions noted are these: 3 nM ^3 H-oxotremorine-M, rat cerebral cortical membranes, 15 min, 25° C., pH 7.4; concentration to inhibit specific binding 50%; read-out: Inhibition of ^3 H-Oxo. As for the experimental part:
The affinity of the compounds for the muscarinic receptors was determined using the non-selective agonist ligand, ^3 H-oxotremorine-M. Birdsdall N. J. M., Hulme E. C., and Burgen A. S. V., "The Character of Muscarinic Receptors in Different Regions of the Rat Brain", 207 Proc. Roy. Soc. 1 (London, Series B, 1980). Each compound was tested to determine the affinity of the compound for the muscarinic receptors using the following procedure.
For each in vitro binding, male Sprague-Dawley (Harlan Sprague-Dawley, Indianapolis, Ind.) rats weighing from about 100 to about 150 grams each were sacrificed by decapitation. The brains were quickly removed and the cerebral cortex were dissected from the brain. The cerebral cortex tissue was homogenized in 10 volumes of 0.32M sucrose and homogenized for about 10 minutes at about 1000×g. […]
The aforementioned homogenates mixture was incubated for about 15 minutes at about 25° C. and then the homogenates were filtered through glass filters (Whatman, GF/C) with vacuum. The filters were washed 3 times with about 2 ml of cold tris-Cl buffer, and placed in scintillation vials containing about 10 ml of scintillation fluid (Ready Protein+, Beckman, Fullerton, Calif.). Radioactivity trapped on the filters was determined by liquid scintillation spectrometry. Nonspecific binding was determined using 1 μM atropine. […]

Counter-ions that a name gives are not always drawn.

For the compound `C=CCCCCOc1nsnc1C1=CCCN(C)C1` [Compound 33, 3-(3-(5-Hexenyloxy)-1,2,5-thiadiazol-4-yl)-1,2,5,6-tetrahydro-1-methylpyridine oxalate], the IC50 came out at 2.7 nM.
